Measurements from PubChem BioAssay AID1963860 (Molecular Pharmacology Branch, DTP, NCI, 2024).

Tested on: CN0375-F725-PDC KRAS spheroid viability
Assay: Anticancer human tumor CN0375-F725-PDC patient-derived colon carcinoma cell line growth inhibition [KRAS2]
Conditions: spheroids with HUVEC and MSC; for IC50: curve of first compound; for viability, T/C: stronger effect = lower value
How it was run: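 Combination screen of spheroid viability in tumor-cell co-cultures with endothelial (HUVEC) and mesenchymal stem cell stroma. Each agent was tested in half-log dilutions, topping at clinical Cmax or at 10 microM without a known Cmax.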

[1] = second compound 0.0316 µM, first compound 0.0316 µM
[2] = second compound 0.0316 µM, first compound 0.1 µM
[3] = second compound 0.0316 µM, first compound 0.316 µM
[4] = second compound 0.0316 µM, first compound 1 µM
[5] = second compound 0.1 µM, first compound 0.0316 µM
[6] = second compound 0.1 µM, first compound 0.1 µM
[7] = second compound 0.1 µM, first compound 0.316 µM
[8] = second compound 0.1 µM, first compound 1 µM
[9] = second compound 0.1 µM, first compound 3.16 µM
[10] = second compound 0.316 µM, first compound 0.0316 µM
[11] = second compound 0.316 µM, first compound 0.1 µM
[12] = second compound 0.316 µM, first compound 0.316 µM
[13] = second compound 0.316 µM, first compound 1 µM
[14] = second compound 0.316 µM, first compound 3.16 µM
[15] = second compound 1 µM, first compound 0.0316 µM
[16] = second compound 1 µM, first compound 0.1 µM
[17] = second compound 1 µM, first compound 0.316 µM
[18] = second compound 1 µM, first compound 1 µM
[19] = second compound 1 µM, first compound 3.16 µM
[20] = second compound 3.16 µM, first compound 0.0316 µM
[21] = second compound 3.16 µM, first compound 0.1 µM
[22] = second compound 3.16 µM, first compound 0.316 µM
[23] = second compound 3.16 µM, first compound 1 µM
[24] = second compound 3.16 µM, first compound 3.16 µM
[25] = second compound 0.1 µM, first compound 0.01 µM
[26] = second compound 0.316 µM, first compound 0.01 µM
[27] = second compound 1 µM, first compound 0.01 µM
[28] = second compound 3.16 µM, first compound 0.01 µM
[29] = second compound 0.0316 µM, first compound 0.00316 µM
[30] = second compound 0.0316 µM, first compound 0.01 µM
[31] = second compound 0.1 µM, first compound 0.00316 µM
[32] = second compound 0.316 µM, first compound 0.00316 µM
[33] = second compound 1 µM, first compound 0.00316 µM
[34] = second compound 3.16 µM, first compound 0.00316 µM
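Also: spheroids exposed to agents for 7 days.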

In the case of COc1cc2nccc(Oc3ccc(NC(=O)C4(C(=O)Nc5ccc(F)cc5)CC4)cc3)c2cc1OC + C=CC(=O)N1CCN(c2nc(OCC3CCCN3C)nc3c2CCN(c2cccc4cccc(C)c24)C3)CC1CC#N, the IC50 (second compound 0.0316 µM) is reported as > 10 µM, the IC50 (second compound 0.1 µM) is reported as > 10 µM and the IC50 (second compound 0.316 µM) is reported as > 10 µM. For the same molecule, the IC50 (second compound 1 µM) was 1.91 µM, the IC50 (second compound 3.16 µM) was < 0.0316 µM and the viability, T/C [1] was 106%. For the same molecule, the viability, T/C [2] was 100%, the viability, T/C [3] was 91.3% and the viability, T/C [4] was 85.9%. For the same molecule, the viability, T/C (second compound 0.0316 µM, first compound 3.16 µM) was 61.1%, the viability, T/C (second compound 0.0316 µM, first compound 10 µM) was 69.8% and the viability, T/C [5] was 101%. It also gave a viability, T/C [6] of 101%, a viability, T/C [7] of 92.6% and a viability, T/C [8] of 83.2%. The viability, T/C [9] was 53.8%, the viability, T/C (second compound 0.1 µM, first compound 10 µM) was 68.9% and the viability, T/C [10] was 96.6%. For the same molecule, the viability, T/C [11] was 100%, the viability, T/C [12] was 85.9% and the viability, T/C [13] was 80.7%. It also gave a viability, T/C [14] of 56.9%, a viability, T/C (second compound 0.316 µM, first compound 10 µM) of 52.8% and a viability, T/C [15] of 95.5%. The viability, T/C [16] was 92%, the viability, T/C [17] was 90.7% and the viability, T/C [18] was 75.7%. It also gave a viability, T/C [19] of 29.9%, a viability, T/C (second compound 1 µM, first compound 10 µM) of 9.59% and a viability, T/C [20] of 14.4%. For the same molecule, the viability, T/C [21] was 18.7%, the viability, T/C [22] was 3.2% and the viability, T/C [23] was 0.26%. It also gave a viability, T/C [24] of 0.13% and a viability, T/C (second compound 3.16 µM, first compound 10 µM) of 0.17%.

With CC1COCCN1c1cc(-c2ccnn2C)c2ccnc(-c3ccn[nH]3)c2n1 (stereo not given) + COc1cc2nc(C)nc(NC(C)c3cc(N)cc(C(F)(F)F)c3)c2cc1OC1CCOC1 the IC50 (second compound 0.1 µM) was > 3.16 µM, the IC50 (second compound 0.316 µM) was > 3.16 µM and the IC50 (second compound 1 µM) was > 3.16 µM. For the same molecule, the IC50 (second compound 3.16 µM) was 2.72 µM, the IC50 (second compound 10 µM) was < 0.01 µM and the viability, T/C [25] was 101%. For the same molecule, the viability, T/C [5] was 95%, the viability, T/C [6] was 86.5% and the viability, T/C [7] was 78.3%. For the same molecule, the viability, T/C [8] was 71.1%, the viability, T/C [9] was 54.1% and the viability, T/C [26] was 98.7%. For the same molecule, the viability, T/C [10] was 91.4%, the viability, T/C [11] was 76% and the viability, T/C [12] was 74.8%. The viability, T/C [13] was 67.9%, the viability, T/C [14] was 50.8% and the viability, T/C [27] was 101%. For the same molecule, the viability, T/C [15] was 96.1%, the viability, T/C [16] was 78% and the viability, T/C [17] was 71.8%. For the same molecule, the viability, T/C [18] was 65.6%, the viability, T/C [19] was 49.5% and the viability, T/C [28] was 87.5%. The viability, T/C [20] was 88.2%, the viability, T/C [21] was 71.7% and the viability, T/C [22] was 65.3%. The viability, T/C [23] was 58.1%, the viability, T/C [24] was 48.1% and the viability, T/C (second compound 10 µM, first compound 0.01 µM) was 15%. It also gave a viability, T/C (second compound 10 µM, first compound 0.0316 µM) of 19.3%, a viability, T/C (second compound 10 µM, first compound 0.1 µM) of 17.1% and a viability, T/C (second compound 10 µM, first compound 0.316 µM) of 13.9%. For the same molecule, the viability, T/C (second compound 10 µM, first compound 1 µM) was 18.1% and the viability, T/C (second compound 10 µM, first compound 3.16 µM) was 9.84%.

For CC(=O)Nc1cccc(-n2c(=O)n(C3CC3)c(=O)c3c(Nc4ccc(I)cc4F)n(C)c(=O)c(C)c32)c1 + C=CC(=O)N1CCN(c2nc(OCC3CCCN3C)nc3c2CCN(c2cccc4cccc(C)c24)C3)CC1CC#N, the IC50 (second compound 0.0316 µM) was 0.00565 µM, the IC50 (second compound 0.1 µM) was 0.00491 µM and the IC50 (second compound 0.316 µM) was 0.00319 µM. For the same molecule, the IC50 (second compound 1 µM) was 0.00162 µM, the IC50 (second compound 3.16 µM) was < 0.0001 µM and the viability, T/C (second compound 0.0316 µM, first compound 0.0001 µM) was 91%. The viability, T/C (second compound 0.0316 µM, first compound 0.000316 µM) was 85.7%, the viability, T/C (second compound 0.0316 µM, first compound 0.001 µM) was 67.1% and the viability, T/C [29] was 53.3%. For the same molecule, the viability, T/C [30] was 48.6%, the viability, T/C [1] was 33.9% and the viability, T/C (second compound 0.1 µM, first compound 0.0001 µM) was 92.3%. It also gave a viability, T/C (second compound 0.1 µM, first compound 0.000316 µM) of 86%, a viability, T/C (second compound 0.1 µM, first compound 0.001 µM) of 66.2% and a viability, T/C [31] of 54.2%. For the same molecule, the viability, T/C [25] was 44.5%, the viability, T/C [5] was 30.7% and the viability, T/C (second compound 0.316 µM, first compound 0.0001 µM) was 86.8%. For the same molecule, the viability, T/C (second compound 0.316 µM, first compound 0.000316 µM) was 77.7%, the viability, T/C (second compound 0.316 µM, first compound 0.001 µM) was 61.6% and the viability, T/C [32] was 50.8%. For the same molecule, the viability, T/C [26] was 38.3%, the viability, T/C [10] was 28.1% and the viability, T/C (second compound 1 µM, first compound 0.0001 µM) was 81.9%. It also gave a viability, T/C (second compound 1 µM, first compound 0.000316 µM) of 73.1%, a viability, T/C (second compound 1 µM, first compound 0.001 µM) of 53.7% and a viability, T/C [33] of 41.2%. The viability, T/C [27] was 35.7%, the viability, T/C [15] was 25.3% and the viability, T/C (second compound 3.16 µM, first compound 0.0001 µM) was 19.1%. It also gave a viability, T/C (second compound 3.16 µM, first compound 0.000316 µM) of 20.7%, a viability, T/C (second compound 3.16 µM, first compound 0.001 µM) of 9.33% and a viability, T/C [34] of 12.7%. The viability, T/C [28] was 1.9% and the viability, T/C [20] was 7.1%.

In the case of CCN1CCN(Cc2ccc(Nc3ncc(F)c(-c4cc(F)c5nc(C)n(C(C)C)c5c4)n3)nc2)CC1 + C=CC(=O)N1CCN(c2nc(OCC3CCCN3C)nc3c2CCN(c2cccc4cccc(C)c24)C3)CC1CC#N, the IC50 (second compound 0.0316 µM) is reported as > 1 µM, the IC50 (second compound 0.1 µM) is reported as > 1 µM and the IC50 (second compound 0.316 µM) is reported as > 1 µM. For the same molecule, the IC50 (second compound 1 µM) was > 1 µM, the IC50 (second compound 3.16 µM) was < 0.00316 µM and the viability, T/C [29] was 110%. The viability, T/C [30] was 94.4%, the viability, T/C [1] was 90.5% and the viability, T/C [2] was 91.8%. It also gave a viability, T/C [3] of 111%, a viability, T/C [4] of 99.8% and a viability, T/C [31] of 103%. The viability, T/C [25] was 96.8%, the viability, T/C [5] was 88.1% and the viability, T/C [6] was 94.6%. It also gave a viability, T/C [7] of 104%, a viability, T/C [8] of 91.2% and a viability, T/C [32] of 104%. It also gave a viability, T/C [26] of 99.7%, a viability, T/C [10] of 85.5% and a viability, T/C [11] of 89.4%. The viability, T/C [12] was 95.2%, the viability, T/C [13] was 91.5% and the viability, T/C [33] was 95.4%. It also gave a viability, T/C [27] of 99.6%, a viability, T/C [15] of 86.9% and a viability, T/C [16] of 83.9%. The viability, T/C [17] was 85.1%, the viability, T/C [18] was 89.8% and the viability, T/C [34] was 34.7%. It also gave a viability, T/C [28] of 31.3%, a viability, T/C [20] of 17.9% and a viability, T/C [21] of 15.3%. It also gave a viability, T/C [22] of 20.3% and a viability, T/C [23] of 1.83%.
